The values that follow come from PMC9855333, “1-(Arylsulfonyl-isoindol-2-yl)piperazines as 5-HT6R Antagonists: Mechanochemical Synthesis, In Vitro Pharmacological Properties and Glioprotective Activity” (Biomolecules, 2022).

A short description of data set [1]: Cytotoxicity, MTT test, SH-SY5Y. Format: cell-based. The note with it: human, SH-SY5Y cells (human neuroblastoma). The method, then: Hepatotoxicity, neurotoxicity, and glial cytotoxicity were investigated using the following cellular models: human hepatocellular carcinoma (HepG2), human neuroblastoma (SHSY-5Y), and mouse astrocytes (C8-D1A), all from ATCC (American Type Culture Collection, Manassas, VA, USA). Cells were cultured in appropriate culture media recommended by ATCC supplemented with 10% fetal bovine serum (FBS; Gibco, Life Technologies, Carlsbad, CA, USA) and 1% antibiotic mixture (Gibco, Life Technologies, Carlsbad, CA, USA). Cells were cultured at standard conditions (5% CO2, 95% humidity, 37 °C). For cytotoxicity experiments, cells were seeded into 96 well plates at an initial density of 2000 cells/well. After overnight incubation, cells were treated with 3e, 3f, and 3g in a concentration range of 0.78–50 µM for 48 h; then, an MTT assay was performed as described previously. Briefly, following cell exposure, 10 µL of MTT reagent was added to each well. After the next 4 h, the medium was aspirated, and formazan produced in cells appeared as dark crystals in the bottom of the wells. Next, 100 µL DMSO was added to each well. Then, the optical density of the solution (OD) at 570 nm was determined on a plate reader (Spectra Max iD3, Molecular Devices, San Jose, CA, USA). The experiments were run three times in triplicates.
For orientation: Tetrazolium assays rely on reduction of a dye to a coloured formazan, in cell work by metabolically active cells.

Data set [2] concerns the target T1, human 5-HT7b receptor (Homo sapiens, UniProt P34969).
T1 construct: expressed in transfected cells
The data set is described as follows: Radioligand binding, [3H]-5-CT displacement, HEK-293 cells. The note with it: mean ± SEM, three independent binding experiments; read-out: Ki [nM] 5-HT7R. The method, then:
All experiments were performed in HEK-293 cells, which stably express the human 5-HT1A, 5-HT6, 5-HT7b, and D2L receptors, or using CHO-K1 cells expressing human serotonin 5-HT2A receptor, following the previously reported procedures. For displacement studies, the following radioligands (PerkinElmer, USA) at given concentrations were used at: 2.5 nM [^3H]-8-OH-DPAT (135.2 Ci/ mmol); 1 nM [^3H]-ketanserin (53.4 Ci/mmol); 2 nM [^3H]-LSD (83.6 Ci/mmol); 0.8 nM [^3H]-5-CT (39.2 Ci/mmol) or 2.5 nM [^3H]-raclopride (76.0 Ci/mmol) for 5-HT1A, 5-HT2A, 5-HT6, 5-HT7b and D2L receptors, respectively. All tested compounds were evaluated in triplicate at 7 concentrations (10^−10–10^−4 M). The inhibition constants (Ki) were calculated from the Cheng–Prusoff equation [25]. A detailed description is reported in the Supporting Information.
1. Procedure for radioligand binding assay
All experiments were carried out according to the previously published procedures. HEK293 cells stably expressing human 5-HT1A, 5-HT6, 5-HT7b and D2L receptors (prepared with the use of Lipofectamine 2000) or CHO-K1 cells with plasmid containing the sequence coding for the human serotonin 5-HT2A receptor (Perkin Elmer) were maintained at 37 °C in a humidified atmosphere containing 5% CO2 and grown in Dulbecco’s Modified Eagle’s Medium containing 10% dialyzed fetal bovine serum and 500 μg/ml G418 sulfate. For membrane preparation, cells were cultured in 150 cm2 flasks, grown to 90% confluence, washed twice with pre-warmed to 37 °C phosphate buffered saline (PBS) and centrifuged (200 × g) in PBS containing 0.1 mM EDTA and 1 mM dithiothreitol. Prior to membrane preparation, pellets were stored at –80 °C. […]
The process of equilibration was terminated by rapid filtration through Unifilter plates with a 96-well cell harvester and radioactivity retained on the filters was quantified on a Microbeta plate reader (PerkinElmer, USA). […] The inhibition constants (Ki) were calculated from the Cheng-Prusoff equation [4].

T1 sequence (P34969 1-432 limits assumed): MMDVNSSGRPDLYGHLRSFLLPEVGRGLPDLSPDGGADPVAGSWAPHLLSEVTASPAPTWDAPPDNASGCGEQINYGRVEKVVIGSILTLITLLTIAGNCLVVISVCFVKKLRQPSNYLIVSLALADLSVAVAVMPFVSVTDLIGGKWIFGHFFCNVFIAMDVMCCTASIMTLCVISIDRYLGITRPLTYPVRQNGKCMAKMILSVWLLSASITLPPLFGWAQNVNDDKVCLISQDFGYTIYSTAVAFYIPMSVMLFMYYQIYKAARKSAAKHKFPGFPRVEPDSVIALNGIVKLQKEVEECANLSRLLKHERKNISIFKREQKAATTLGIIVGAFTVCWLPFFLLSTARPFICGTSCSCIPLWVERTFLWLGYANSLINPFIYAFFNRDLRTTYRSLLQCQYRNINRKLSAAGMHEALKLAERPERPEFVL

As for `O=S(=O)(c1cccc(N2CCNCC2)c1)N1Cc2ccccc2C1` [3e, 2-{[3-(Piperazin-1-yl)phenyl]sulfonyl}isoindoline], the IC50 (in general, the point on the concentration scale where inhibition reaches its midpoint) at 48 h in data set [1] amounted to 42 µM. Moreover, the inhibitory constant (Ki) (in general, a dissociation constant, usually derived from enzyme kinetics or from competition with a known ligand) in data set [2] worked out at 4530 ± 327 nM.
The matching figures for `O=S(=O)(c1cccc(N2CCNCC2)c1)N1Cc2cccc(Cl)c2C1` [3f, 4-Chloro-2-{[3-(piperazin-1-yl)phenyl]sulfonyl}isoindoline]: 38 µM and 10700 ± 1030 nM.
On the same counts, the results for `O=S(=O)(c1cccc(N2CCNCC2)c1)N1Cc2cccc(Br)c2C1` [3g, 4-Bromo-2-{[3-(piperazin-1-yl)phenyl]sulfonyl}isoindoline] are 48 µM and 8800 ± 854 nM.
